Source: US12391646B2, “Using adiponectin receptor agonists to treat inflammation and bone diseases in diabetes” (Trustees of Tufts College, priority 2020, dated 2025)

Tests used:
[1] = system: DIO mice; assay: Systemic inflammation in DIO mice, oral gavage 14 days; assay type: in vivo; conditions: AdipoAI 25 mg/kg; for mRNA expression of IL-6 and IL-1β in WAT, spleen, bone marrow / serum levels of IL-6 and IL-1β: oral gavage 14 days, APR 50 mg/kg
Protocol: FIG. 3 AdipoAI decreases inflammation in DIO mice (n=6). DIO mice were orally gavaged with APR (50 mg/kg) or AdipoAI (25 mg/kg) for 14 days, and control animals (WT or DIO mice) were administered with equivalent volumes of DMSO. mRNA expression levels of pro-inflammatory cytokines in (a) WAT, (b) spleen and (c) bone marrow were measured by qRT-PCR and normalized to the level of β-actin mRNA. Data are expressed as mean±SEM. (d) Serum levels of IL-6 and IL-1β were measured by ELISA. Data are expressed as mean #SEM. Representative images of H&E (e) and IHC of F4/80 staining (f) of spleen tissue in DIO mice (n=6). Red arrow indicates multinucleated giant cells (megakaryocytes). One-way ANOVA test for multiple-group comparisons, * vs. WT-vehicle group, # vs. DIO-vehicle group. */#P<0.05, significant differences between each indicated group. ns, not significant.
The Ethics Committee on the Use and Care of Animals at Tufts University approved the study protocol (Boston, MA, USA). The animals received humane care according to the criteria outlined in the Guide for the Care and Use of Laboratory Animals prepared by the National Academy of Sciences and published by the National Institutes of Health. All experiments involving animals or animal tissue are reported in compliance with the guidelines of ARRIVE and BJP (Kilkenny et al., 2010; McGrath and Lilley, 2015). Experimental protocols and design adhere to BJP guidelines (Curtis et al., 2015). Wild-type (WT, C57BL/6J, Jax #000664), DIO (Jax #380050), and APN KO (Jax #008195) mice were purchased from the Jackson Laboratory. The DIO mice were fed with a high-fat diet (containing 60% kcal from fat; Jackson Laboratory) at 6 weeks of age and later. The WT mice were fed with ordinary diet as normal chow (NC)-fed mice, and APN KO mice were maintained and fed with an NC diet as previously described (Tu et al., 2011). For the LPS-induced endotoxemia model, male C57BL/6 mice aged 8 weeks received oral gavage with APR (50 mg/kg body weight) or AdipoAI (25 mg/kg body weight) for 24 h before by LPS (20 mg/kg body weight) treatment which was administered intraperitoneally whereas control animals were treated with equivalent volumes of normal PBS. Mouse survival in each group was monitored and recorded up to 84 h. All mice were killed at 1 h for detection of activation of inflammatory genes, at 6 h for determination of inflammatory factors in serum, and at 24 h for histological evaluation. Animal data were excluded from experiments based on pre-established criteria of visible abnormal tissue structure during sample harvest or other health issues, including fighting wounds.

[2] = system: NF-κB and p38 MAPK signaling pathways, APPL1; assay: Western blotting of signaling proteins in Raw264.7 cells; assay type: cell-based; conditions: for densitometry value p-IRAK4 (FIG. 5a) / densitometry value p-P38 (FIG. 5a) / densitometry value APPL1 (FIG. 5e), without LPS / densitometry value APPL1 (FIG. 5e), with LPS: relative to first lane 1.00, lane order inferred; for densitometry value p-IRAK4 (FIG. 5a) / densitometry value p-P38 (FIG. 5a): APR 20 μM or AdipoAI 5 μM 24 h, LPS 30 min; for densitometry value APPL1 (FIG. 5e), without LPS: APR 20 μM; for densitometry value APPL1 (FIG. 5e), with LPS: LPS alone 0.32
Protocol: FIG. 5 AdipoAI inhibition of NF-κB and p38 MAPK signaling pathways is dependent of AdipoR1/APPL1 axis in LPS-induced macrophages. (a) Impact of AdipoAI in the phosphorylation of related signaling proteins by western blotting. Raw264.7 cells were pretreated with APR (20 μM) or AdipoAI (5 μM) for 24 h followed by incubation with LPS (100 ng/mL) for an additional 30 min. Representative images are shown, and quantitative analysis of protein expression was performed by densitometric analysis (see lower panel), densitometry values—p-IRAK4: 1.00, 0.13, 0.09; p-P38: 1.00, 0.76, 0.26. (b) Expression of p65 protein in cytoplasmic and nuclear extracts of Raw264.7 cells. Representative images of p65 expression are presented along with Lamin B1 and β-actin expression which were used as internal loading controls. Quantitative analysis of protein expression was performed by densitometric analysis (lower panel), Densitometry values-p-P65: 0.53, 1.00, 0.38, 0.76; P65: 0.32, 1.00, 0.21, 0.53. (c) RAW 264.7 cells were transfected with siRNA targeting cither AdipoR1, AdipoR2, APPL1, APPL2 or scrambled control siRNA for 24 h, followed by stimulation with AdipoAI or APR for 24 h, then incubation with LPS for additional 6 h. Transfection efficiency of siRNA and mRNA expression levels of IL-6, IL-1β were measured by qPCR and normalized with GAPDH mRNA levels. Data were expressed as the mean±SEM at five biological independent experiments. One-way ANOVA test for multiple-group comparisons, *P<0.05, significant differences between each indicated group. ns, not significant. (d) RAW 264.7 cells were stimulated with LPS, AdipoAI, or APR for different times and proteins levels determined by western blotting. Representative western blotting images are shown along with β-actin used as an internal loading control and densitometric analysis. Densitometry values-Panel 1: APPL1: 1.00, 0.48, 0.44; Panel 2: APPL1: 1.00, 2.17, 5.38; Panel 3: APPL1: 1.00, 2.11, 4.82. (e) Raw264.7 cells were pretreated with APR (20 μM) or AdipoAI (5 μM) for 24 h followed by incubation with LPS (100 ng/mL) for additional 6 h for the measurement of related proteins by WB. Representative images are shown along with β-actin as an internal loading control and densitometric analysis. Densitometry values—APPL1: 1.00, 1.53, 1.58, 0.32, 0.45, 0.67. (f) Raw264.7 cells and (g) BMMs were transfected with siRNA targeting APPL1 or scrambled control siRNA for 24 h, followed by stimulation with AdipoAI for 24 h, then incubation with LPS for additional 6 h for western blotting analysis. Densitometry values for f—APPL1: 1.00, 0.43; p-IRAK4: 1.00, 1.31; p-P-38:1.00, 1.47. Densitometry values for g—APPL1: 1.00, 0.38; p-IRAK4: 1.00, 1.30; p-P38: 1.00, 1.67. Representative images are shown along with β-actin as an internal loading control, and densitometric analysis. No statistical analysis of western blotting for n=3.
Total cellular extracts were prepared using RIPA Lysis and Extraction Buffer containing three Protease Inhibitors (Thermo Scientific). Cytoplasmic and nuclear extracts were purified using NE-PER™ Nuclear and Cytoplasmic Extraction Reagents (Thermo Scientific). Experimental details of western blotting are in accordance with British Journal of Pharmacology guidelines (Alexander et al., 2018) and western blot analyses were performed as previously described (J. Zhang et al., 2017). Briefly, the total protein concentration was quantified using BCA kit (P1511; Applygen Technologies Inc., Beijing, China). The samples were separated by SDS-PAGE and electrophoretically transferred to a polyvinylidene difluoride membrane (Merck Millipore, Darmstadt, Germany). The membranes were blocked with 5% skim milk for 1 to 2 hr at room temperature. […]

[3] = LPS-induced Raw264.7 cells, AdipoAI 5 μM

SMILES | mRNA expression of IL-6 and IL-1β in WAT, spleen, bone marrow [1] | serum levels of IL-6 and IL-1β [1] | APPL1 protein expression ([2]; Raw264.7 cells) | densitometry value p-IRAK4 (FIG. 5a) [2] | densitometry value p-P38 (FIG. 5a) [2] | densitometry value APPL1 (FIG. 5e), without LPS ([2]; AdipoAI 5 μM) | densitometry value APPL1 (FIG. 5e), with LPS [2] | megakaryocytes and macrophages in spleen (H&E, IHC F4/80) ([1]; 14 days) | phosphorylation of AKT, JNK or ERK ([2]; LPS-induced Raw264.7 cells) | decrease of phosphorylation of IRAK4 [2, 3] | decrease of phosphorylation of p38 [2, 3] | AdipoR1 or AdipoR2 protein levels ([2]; Raw264.7 cells) | LPS-induced p65 phosphorylation and nuclear translocation ([2]; Raw264.7 cells)
O=C(COc1ccc(C(=O)c2ccccc2)cc1)NC1CCN(Cc2ccccc2)CC1 [AdipoRon, reference compound] | inhibited the expression levels of IL-6 and IL-1β | inhibited the expression levels of IL-6 and IL-1β | increased | 0.13 | 0.76 | 1.53 | 0.45 | – | – | – | – | – | –
COc1ccc(CN2CCC(NC(=O)COc3ccc(C(=O)c4ccc(Cl)cc4)cc3)CC2)cc1 [Compound 3] | inhibited mRNA expression of IL-6 (Il6) and IL-1β (Il1β) | reduced IL-6 and IL-1β levels in the serum | increased APPL1 expression | 0.09 | 0.26 | 1.58 | 0.67 | decreased quantity of megakaryocytes and macrophages | did not significantly alter phosphorylation of AKT, JNK or ERK | 70% | 70% | did not influence AdipoR1 or AdipoR2 protein levels | suppressed LPS-induced p65 phosphorylation and nuclear translocation
